What was measured:
LPS treated mice = experiment: LPS-induced nephritis in C57 mice; type: in vivo; conditions: serum 24 h after LPS, oral, formula (Ia) 15 mg/kg, Iptacopan 20 mg/kg twice a day; for Serum creatinine (reduction): reduction against LPS treated mice; for Serum urea (reduction): reduction compared with LPS treated mice
Procedure: Single dose of lipopolysachharide (LPS)-induced acute nephritis was generated in C57 mice and the effect of compound of formula (Ia) and combination as shown below. Male C57 mice were treated with vehicle/compound of formula (Ia) (15 mg/kg) and combination of compound of formula (Ia) (15 mg/kg) and Iptacopan (20 mg/kg, twice a day) by oral route. These mice were bled after 24 h of LPS treatment and serum was obtained. The creatinine and urea levels were measured in the serum.

5/6 nephrectomized rat = experiment: 5/6 nephrectomy induced renal dysfunction in male SD rats; type: in vivo; conditions: 5/6 nephrectomized SD rats, 15 mg/kg for four weeks
Procedure: Male SD rats will be operated for 5/6 nephrectomy to induce the focal segmental glomerulosclerosis. After a week of recovery, animals were treated with compound of formula (Ia). The randomized rats were treated with compound of formula (Ia) (15 mg/kg) for four weeks. At the end of treatment serum creatinine, serum urea and urine microalbumin was measured.

doxorubicin treated mice = experiment: Doxorubicin-induced glomerulosclerosis in male Balb/c mice; type: in vivo; conditions: reduction against doxorubicin treated animals, 24 h urine, oral, two weeks, formula (Ia) 15 mg/kg, Fimasartan 15 mg/kg
Procedure: Male Balb/c mice were treated with doxorubicin (10 mg/kg, IV). After 5 weeks of treatment, mice were randomized based on protein excretion urine into four groups: Doxorubicin, compound of formula (Ia) (15 mg/kg) and combination of compound of formula (Ia) (15 mg/kg) and Fimasartan (15 mg/kg) by oral route. The treatment continued for two weeks. These mice kept in metabolic cage and 24 h urine protein excretion was measured.

BSA treated mice = experiment: Cationic bovine serum albumin (cBSA) induced nephritis in male C57 mice; type: in vivo; conditions: reduction against BSA treated mice, 24 h urine on 11th day, oral, 10 days, formula (Ia) 15 mg/kg, Iptacopan 20 mg/kg BID
Procedure: Male C57 mice were treated with bovine serum albumin (BSA) at 2, 4, 6, 8 and 10 mg/kg on day 1, 2, 3, 4, and 5 days by intraperitoneal route, respectively. The BSA at 10 mg/kg was treated for next 5 days. On the same day, mice were treated with either vehicle/compound of formula (Ia) (15 mg/kg) and combination of compound of formula (Ia) (15 mg/kg) and Iptacopan (20 mg/kg, BID) by oral route and continued for 10 days. On 11th day mice kept in metabolic cage and 24 h urine protein excretion was measured.

db/db mice = experiment: Diabetes induced renal dysfunction in db/db mice; type: in vivo; conditions: one kidney removed, 15 mg/kg for eight weeks; for Urine microalbumin (reduction): reduction against diabetic mice
Procedure: For inducing diabetes-induced renal dysfunction, one kidney was removed from male db/db mice and they were treated with compound of formula (Ia) and combination for 8 weeks. At the end of treatment, renal dysfunction was estimated. Histological change in renal disease was also accessed with biochemical changes in serum and urine. Male db/db mice were randomized and were treated with compound of formula (Ia) (15 mg/kg) for eight weeks. At the end of treatment serum creatinine, serum urea and urine microalbumin was measured.

ischemia condition = conditions: reference 12, cited from earlier work
HIF = conditions: animal model of anemia; reference 10; cited from earlier work
hemoglobin = conditions: clinical trials; reference 11; cited from earlier work
[1] = listed as compound of formula (Ia)
[2] = listed as Compound of formula (Ia)

SMILES: O=C(O)CNC(=O)c1c(O)c2ccccc2n(OCC2CC2)c1=O [Formula (Ia), Desidustat]
- Serum creatinine (reduction) (LPS treated mice): 34.1 ± 5.2%
- Serum creatinine (reduction) (LPS treated mice; [1]): 34.1±5.2%
- Serum urea (reduction) (LPS treated mice): 44.9 ± 5.2%
- Serum urea (reduction) (LPS treated mice; [1]): 44.9 ± 5.2%
- Microalbumin (reduction of urinary excretion) (5/6 nephrectomized rat): 35.9 ± 12.0%
- Serum creatinine (reduction) (5/6 nephrectomized rat): 14.9 ± 3.2%
- Serum urea (reduction) (5/6 nephrectomized rat): 15.9 ± 8.8%
- Microalbumin (reduction of urinary excretion) (5/6 nephrectomized rat; [2]): 35.9±12.0%
- Serum creatinine (reduction) (5/6 nephrectomized rat; [2]): 14.9±3.2%
- Serum urea (reduction) (5/6 nephrectomized rat; [2]): 15.9±8.8%
- Urine total protein (reduction) (doxorubicin treated mice): 47.8 ± 5.8%
- Urine total protein (reduction) (doxorubicin treated mice; [1]): 47.8±5.8%
- Urine total protein (reduction) (BSA treated mice): 40.1 ± 7.6%
- Urine total protein (reduction) (BSA treated mice; [2]): 40.1±7.6%
- Serum creatinine (reduction) (db/db mice): 28.4 ± 4.4%
- Serum urea (reduction) (db/db mice): 25.8 ± 4.8%
- Serum creatinine (reduction) (db/db mice; [2]): 28.4±4.4%
- Serum urea (reduction) (db/db mice; [2]): 25.8±4.8%
- Urine microalbumin (reduction) (db/db mice): 50.2 ± 3.2%
- Urine microalbumin (reduction) (db/db mice; [2]): 50.2±3.2%
- IL-1β levels (ischemia condition; ischemia condition): reduced
- IL-6 levels (ischemia condition; ischemia condition): reduced
- MDA (ischemia condition; oxidative stress): decreases
- SOD (ischemia condition; oxidative stress): decreases
- HIF stabilisation (HIF): stabilizes HIF
- erythropoiesis (HIF): induces erythropoiesis
- hemoglobin (hemoglobin): improves hemoglobin
